Each structure is given as a SMILES string. Structures can show the parent of a compound that is named as a salt.

Experimental findings from patent US9090658B2, “Base-substituted benzylamine analogs for use as coagulation factor Xa inhibitors, the production and use thereof” (The Medicines Company (Leipzig) GmbH, priority 2003, dated 2015) are described below.

Assay [1] concerns the target T1, factor Xa (Bos taurus, UniProt P00743).
T1 construct: purchased Diagnostic Reagents Ltd, Thame, GB
Description: Determination of the inhibitory constants for factor Xa (chromogenic substrate Moc-D-Nle-Gly-Arg-pNA, Dixon method). In kind it is biochemical, bovine. As to conditions: for Ki: bovine factor Xa, 25° C., pH 8.0, average of at least three determinations. The protocol:
Determination of the inhibitory Effect
To determine the inhibitory effect, 200 μl of this buffer (0.05 M 0.154 M NaCl, 5% Ethanol, pH 8.0; contains the inhibitor), 25 μl of substrate (Moc-D-Nle-Gly-Arg-pNA in H2O; Pentapharm Ltd., Basle, Switzerland) and 50 μl of factor Xa (bovine, Diagnostic Reagents Ltd, thame, GB) were incubated at 25° C. After 3 min, the reaction was stopped By adding 25 μl of acetic acid (50%), and the absorption at 405 nm was determined using a Microplate Reader (MR 5000, Dynatech, Denkendorf, Germany). The Ki values were Founder by the Dixon method (boichem. J. 55, 170-171, 1953) by linear regression using a Computer program. The Ki values are the average of at least three determinations. The Thrombin inhibitions was determined in analogy to a method described earlier (Stürzebecher et al., J. Med. Chem. 40, 3091-3099, 1997).

Assay [2] concerns the target Thrombin (UniProt P00735). Description: Determination of the inhibitory constants for thrombin (method of Stürzebecher et al. 1997). Format: biochemical. From the text:
The Ki values are the average of at least three determinations.

T1 sequence (P00743 234-492 limits assumed): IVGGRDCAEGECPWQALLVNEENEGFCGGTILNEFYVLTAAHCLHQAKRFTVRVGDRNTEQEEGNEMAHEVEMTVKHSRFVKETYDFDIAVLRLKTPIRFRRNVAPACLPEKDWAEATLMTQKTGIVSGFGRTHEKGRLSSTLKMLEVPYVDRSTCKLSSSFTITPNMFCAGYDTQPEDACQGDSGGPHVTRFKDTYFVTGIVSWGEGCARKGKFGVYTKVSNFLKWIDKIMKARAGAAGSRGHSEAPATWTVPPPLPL
T1 sequence (P00743 41-180 partner limits assumed): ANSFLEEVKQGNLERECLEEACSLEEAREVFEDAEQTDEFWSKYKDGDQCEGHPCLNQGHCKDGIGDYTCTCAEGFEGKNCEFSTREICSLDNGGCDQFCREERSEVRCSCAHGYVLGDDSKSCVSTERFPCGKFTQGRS

As to `N=C(N)c1ccc(CNC(=O)[C@H](CO)NC(=O)[C@@H](CCc2ccccc2)NS(=O)(=O)Cc2ccccc2)cc1` [Compound 15], in assay [1], the “selectivity ratio SR (SR = Ki thrombin/Ki factor Xa)” value (shortened to “selectivity ratio SR”) amounted to 15 and the Ki came to 40 nM. In assay [2], this compound returned a Ki of 600 nM.
As to `N=C(N)c1ccc(CNC(=O)CNC(=O)[C@@H](CCc2ccccc2)NS(=O)(=O)Cc2ccccn2)cc1` [Compound 8, 2-PMs-d-homoPhe-Gly-4Amba×2 TFA], in assay [1], the “selectivity ratio SR” value is given as 96 and the Ki amounted to 51 nM. This compound gave a Ki in assay [2] of 4900 nM.
Turning to `N=C(N)c1ccc(CNC(=O)CNC(=O)[C@@H](CCc2ccccc2)NS(=O)(=O)Cc2ccncc2)cc1` [Compound 14], the “selectivity ratio SR” value in assay [1] is 45. Besides, the Ki in assay [1] was found to be 80 nM; in assay [2] it was 3600 nM.
The corresponding values for `COC(=O)Cc1ccc(CS(=O)(=O)N[C@H](CCc2ccccc2)C(=O)NCC(=O)NCc2ccc(C(=N)N)cc2)cc1` [Compound 16] are 47, 38 nM and 1800 nM.
`N=C(N)c1ccc(CNC(=O)CNC(=O)C(CCc2cc[n+]([O-])cc2)NS(=O)(=O)Cc2ccccc2)cc1` (stereo not shown) [Compound 60]: in assay [1], the “selectivity ratio SR” value was determined as 730 and the affinity corresponds to a Ki of 4.8 nM. In assay [2], this compound yielded an inhibition constant (Ki) of 3500 nM.
On to `N=C(N)c1ccc(CNC(=O)[C@H](CCC(=O)O)NC(=O)[C@@H](CCc2ccc(O)cc2)NS(=O)(=O)Cc2ccccc2)cc1` [Compound 34], for which, in assay [1], the “selectivity ratio SR” value was determined as 5135 and the affinity corresponds to a Ki of 3.7 nM. In assay [2], affinity was put at a Ki of 19000 nM.
For the compound `N=C(N)c1ccc(CNC(=O)[C@H](CO)NC(=O)[C@@H](CCc2ccccc2)NS(=O)(=O)Cc2ccncc2)cc1` [Compound 7, 4-PMs-dhomoPhe-Gly-4Amba×2 TFA], in assay [1], the “selectivity ratio SR” value turned out to be 7.2 and the Ki is 460 nM. Besides, the Ki in assay [2] is 3300 nM.
With `N=C(N)c1ccc(CNC(=O)[C@H](CO)NC(=O)[C@@H](CCc2ccc(O)cc2)NS(=O)(=O)Cc2ccccc2)cc1` [Compound 6, Bzls-d-homoTyr-Ser-4Amba×TFA], in assay [1], the “selectivity ratio SR” value was 74 and the Ki was 19 nM. In addition, in assay [2], the Ki was determined as 1400 nM.
Consider `N=C(N)c1ccc(CNC(=O)CNC(=O)[C@@H](CCc2ccccc2)NS(=O)(=O)Cc2ccc(CC(=O)O)cc2)cc1` [Compound 17], for which, in assay [1], the “selectivity ratio SR” value is listed as 259 and affinity was put at a Ki of 54 nM. Further, in assay [2], affinity was put at a Ki of 14000 nM.
The corresponding values for `N=C(N)c1ccc(CNC(=O)CNC(=O)C(CCc2ccncc2)NS(=O)(=O)Cc2ccc(CC(=O)O)cc2)cc1` (stereo not shown) [Compound 49] are 2923, 13 nM and 38000 nM.
Take `Nc1ccc(CNC(=O)CNC(=O)C(CCc2ccncc2)NS(=O)(=O)Cc2ccccc2)cn1` (stereo not shown) [Compound 65]: the “selectivity ratio SR” value in assay [1] stood at 833. Besides, the Ki in assay [1] worked out at 120 nM; in assay [2], 100000 nM.
The corresponding values for `N=C(N)c1ccc(CNC(=O)CNC(=O)[C@@H](CCc2ccccc2)NS(=O)(=O)Cc2cccc(N)c2)cc1` [Compound 45] are 150, 9.3 nM and 1400 nM.
For the compound `N=C(N)c1ccc(CNC(=O)CNC(=O)C(CCc2ccncc2)NS(=O)(=O)Cc2ccncc2)cc1` (racemic) [Compound 2, 4-PMs-D,L-homoAla(4-Pyr)-Gly-4Amba×3 Acetate], in assay [1], the “selectivity ratio SR” value is on record as 246 and the Ki stood at 13 nM. Further, the Ki in assay [2] was 3200 nM.
Consider `N=C(N)c1ccc(CNC(=O)CNC(=O)[C@@H](CCc2ccccc2)NS(=O)(=O)Cc2ccc(O)cc2)cc1` [Compound 32], for which, in assay [1], the “selectivity ratio SR” value came out at 105 and the Ki was determined as 3.6 nM. The inhibition constant Ki in assay [2] was determined as 380 nM.
As to `N=C(N)c1ccc(CNC(=O)CNC(=O)C(CCc2cccnc2)NS(=O)(=O)Cc2ccccc2)cc1` (stereo not shown) [Compound 24], in assay [1], the “selectivity ratio SR” value amounted to 400. For the same compound, the Ki in assay [1] was 5 nM; in assay [2], 2000 nM.
For `N=C(N)c1ccc(CNC(=O)CNC(=O)[C@@H](CNc2ccncc2)NS(=O)(=O)Cc2ccccc2)cc1` [Compound 23], in assay [1], the “selectivity ratio SR” value was found to be 127 and the Ki is 22 nM. The inhibition constant (Ki) in assay [2] was found to be 2800 nM.
Regarding `N=C(N)c1ccc(CNC(=O)CNC(=O)C(CCc2ccncc2)NS(=O)(=O)Cc2ccccc2)cc1` (racemic) [Compound 1, Bzls-D,L-homoAla(4-Pyr)-Gly-4Amba×2 TFA], in assay [1], the “selectivity ratio SR” value is 690 and affinity was put at a Ki of 2.9 nM. In assay [2], this compound displayed a Ki of 2000 nM.
The corresponding values for `N=C(N)c1ccc(CNC(=O)[C@H](CO)NC(=O)C(CCc2ccncc2)NS(=O)(=O)Cc2ccncc2)cc1` (stereo partly drawn) [Compound 4, 4-PMs-D,L-homoAla(4-Pyr)-Ser-4Amba×3 acetate] are 65, 97 nM and 6300 nM.
As to `N=C(N)c1ccc(CNC(=O)[C@H](CCC(=O)O)NC(=O)[C@@H](CCc2ccccc2)NS(=O)(=O)Cc2ccccc2)cc1` [Compound 50], the “selectivity ratio SR” value in assay [1] turned out to be 1153. Moreover, the Ki in assay [1] is 13 nM; in assay [2] it was 15000 nM.
For the compound `N=C(N)c1ccc(CNC(=O)CNC(=O)[C@@H](CCc2ccccc2)NS(=O)(=O)Cc2cccnc2)cc1` [Compound 9, 3-PMs-dhomoPhe-Gly-4Amba×2 TFA], in assay [1], the “selectivity ratio SR” value turned out to be 95 and affinity was put at a Ki of 62 nM. The affinity in assay [2] corresponds to a Ki of 5900 nM.
`N=C(N)c1ccc(CNC(=O)CNC(=O)[C@@H](CCc2ccc(O)cc2)NS(=O)(=O)Cc2ccc(N)cc2)cc1` [Compound 27]: in assay [1], the “selectivity ratio SR” value was 295 and the Ki was determined as 1.9 nM. For the same compound, the Ki in assay [2] was 560 nM.
As for `N=C(N)c1ccc(CNC(=O)CNC(=O)[C@H](NS(=O)(=O)Cc2ccccc2)C2Cc3ccccc3C2)cc1` [Compound 21], in assay [1], the “selectivity ratio SR” value is on record as 5.2 and the affinity corresponds to a Ki of 29 nM. In assay [2], this compound came in with a Ki of 150 nM.
Regarding `N=C(N)c1ccc(CNC(=O)[C@H](CCC(=O)O)NC(=O)[C@@H](CCc2ccc(O)cc2)NS(=O)(=O)Cc2ccc(N)cc2)cc1` [Compound 30], the “selectivity ratio SR” value in assay [1] stood at 22940. The values for the Ki in assay [1] and in assay [2] were 3.4 nM and 78000 nM, respectively.
Regarding `N=C(N)c1ccc(CNC(=O)CNC(=O)C(CCc2ccncc2)NS(=O)(=O)Cc2ccc(N)cc2)cc1` (stereo not shown) [Compound 28], in assay [1], the “selectivity ratio SR” value is 454 and the Ki stood at 2.2 nM. Besides, affinity in assay [2] was put at a Ki of 1000 nM.
The corresponding values for `N=C(N)c1ccc(CNC(=O)[C@H](CO)NC(=O)[C@@H](CCc2ccncc2)NS(=O)(=O)Cc2ccccc2)cc1` [Compound 3a, Bzls-D,L-homoAla(4-Pyr)-Ser-4Amba×2 TFA] are 97, 9.4 nM and 910 nM.
`COC(=O)Cc1ccc(CS(=O)(=O)NC(CCc2ccncc2)C(=O)NCC(=O)NCc2ccc(C(=N)N)cc2)cc1` (stereo not shown) [Compound 44]: in assay [1], the “selectivity ratio SR” value stood at 463. For the same compound, the results for the Ki in assay [1] and in assay [2] were 8.2 nM and 3800 nM, respectively.
The corresponding values for `N=C(N)c1ccc(CNC(=O)CNC(=O)C(CCc2ccccn2)NS(=O)(=O)Cc2ccccc2)cc1` (stereo not shown) [Compound 25] are 952, 2.1 nM and 2000 nM.
`N=C(N)c1ccc(CNC(=O)[C@H](CO)NC(=O)[C@H](CCc2ccncc2)NS(=O)(=O)Cc2ccccc2)cc1` [Compound 3b, Bzls-D,L-homoAla(4-Pyr)-Ser-4Amba×2 TFA]: in assay [1], the “selectivity ratio SR” value is listed as 48.4 and the inhibitory constant (Ki) was 95 nM. Moreover, the Ki in assay [2] was found to be 4600 nM.
As to `N=C(N)c1ccc(CNC(=O)CNC(=O)[C@@H](CCc2ccncc2)NS(=O)(=O)Cc2ccccc2)cc1` [Compound 22], in assay [1], the “selectivity ratio SR” value came out at 259 and the Ki stood at 2.7 nM. In addition, the Ki in assay [2] is 700 nM.
Consider `N=C(N)c1ccc(CNC(=O)CNC(=O)[C@@H](CCc2ccc(O)cc2)NS(=O)(=O)Cc2ccc([N+](=O)[O-])cc2)cc1` [Compound 36], for which the “selectivity ratio SR” value in assay [1] turned out to be 165. Besides, the Ki in assay [1] was found to be 5.2 nM; in assay [2], 860 nM.
On to `N=C(N)c1ccc(CNC(=O)CNC(=O)[C@@H](CCc2ccccc2)NS(=O)(=O)Cc2ccccc2N)cc1` [Compound 19], for which, in assay [1], the “selectivity ratio SR” value amounted to 137 and affinity was put at a Ki of 6.7 nM. In addition, the affinity in assay [2], expressed as Ki, was 920 nM.
`N=C(N)c1ccc(CNC(=O)CNC(=O)[C@@H](CCc2ccccc2)NS(=O)(=O)Cc2ccccc2)cc1` [Compound 11]: in assay [1], the “selectivity ratio SR” value is 7.2 and affinity was put at a Ki of 6.5 nM. In assay [2], this compound displayed a Ki of 47 nM.
As for `N=C(N)c1ccc(CNC(=O)[C@H](CCC(=O)OCc2ccccc2)NC(=O)C(CCc2ccncc2)NS(=O)(=O)Cc2ccccc2)cc1` (stereo partly shown) [Compound 39], the “selectivity ratio SR” value in assay [1] is 26. The Ki in assay [1] amounted to 6.4 nM; in assay [2], 170 nM.
`N=C(N)c1ccc(CNC(=O)CNC(=O)C(CCc2ccncc2)NS(=O)(=O)Cc2ccc(C(=O)O)cc2)cc1` (stereo not shown) [Compound 48] registered a Ki in assay [1] of 10 nM.
